Laboratory results from paper PMC3141655 (BMC Biochemistry, 2011).
Where two headings read alike, the source gives them in different places.

Columns and labels:
[1] = biological target: T1, StOASS (O-acetylserine sulfhydrylase) (Salmonella typhimurium, UniProt P0A1E3)
Method: (§1) Isothermal titration calorimetry (ITC) experiments were performed using a Nano-ITC (TA-Instruments). OASS was dialyzed at 25°C in 20 mM Tris buffer (pH 8.0) and 50 mM NaCl. Buffer solutions were degassed at room temperature prior to use. […] The heat of dilution for each injection was determined using buffer in the cell. Data obtained from the titration of ligands with OASS were analyzed using either a two-sites binding model (eqn 2)(2) [drawing 2]
(§2) Qi^tot is total heat after the i^th injection, V0 is the volume of calorimetric cell, K1 and K2 are the observed equilibrium constants for each site, and ΔH1 and ΔH2 are the corresponding enthalpy changes. Estimates of Kobs and ΔH were obtained by fitting the experimental data to the model and the best-fit parameters were selected based on the lowest Chi-squared values.

[2] = biological target: T2, HiOASS (O-acetylserine sulfhydrylase) (Haemophilus influenzae, UniProt P45040); conditions: for TdS / ΔG / ΔH: 20 mM Tris pH 8.0, 50 mM NaCl
Method: as §1, §2

[3] = biological target: T1, StOASS (O-acetylserine sulfhydrylase); assay: PLP fluorescence titration of ligands with StOASS; assay type: binding; design: His tag (N); made in house; host or cells: E. coli BL21(DE3), pET28a(+); conditions: for N (number of binding sites) / Qmax (maximum fluorescence quenching at saturation) / ΔG / Kobs / Qmax: 20 mM Tris pH 8.0; for Kd: from K1,obs and K2,obs of the PLP fluorescence titration, read-out: Kd
Method: Titrations of ligands with StOASS were examined by monitoring changes in the active site pyridoxal 5'phosphate (PLP) fluorescence of OASS using a Varian spectrofluorometer. The excitation and emission wavelengths for monitoring PLP signal change upon ligand binding were 412 nm and 507 nm respectively. All experiments were done at 23.0 ± 1°C. Slit widths were set to 5 nm for all experiments and PMT voltage was adjusted to get maximum signal for a given protein concentration. Initial readings of both the sample, Fsamp,0 and buffer, Fbuf,0 were taken, with F0 = Fsamp,0-Fbuf,0 defined as the initial fluorescence of the sample. The sample cuvette was then titrated with aliquots of ligands and mixed, equilibrated for 2-5 minutes before measurement. Data points from five such measurements were averaged to obtain Fave,i. The relative fluorescence quenching upon ligand binding is defined as Qobs,i = (F0-Fobs,i)/F0. All measurements were corrected for dilution, and inner filter effects.
Binding of ligands to OASS was analyzed to obtain the equilibrium binding constant, Kobs = [PL]/[P]*[L], using a single or two independent site binding models (eqn 1)(1) [drawing 1]
Where n, number of binding sites, Qobs, observed fluorescence quenching and Qmax, the maximum fluorescence quenching at saturation.

[4] = biological target: T2, HiOASS (O-acetylserine sulfhydrylase); assay: PLP fluorescence titration of ligands with HiOASS; assay type: binding; design: His tag (N); made in house; host or cells: E. coli BL21(DE3), pET28a(+); conditions: 20 mM Tris pH 8.0
[5] = 10°C, 20 mM Tris pH 8.0, 50 mM NaCl
[6] = 10°C, 20 mM Tris pH 8.0, 50 mM NaCl, two independent sites model
[7] = 15°C, 20 mM Tris pH 8.0, 50 mM NaCl
[8] = 20°C, 20 mM Tris pH 8.0, 50 mM NaCl
[9] = 25°C, 20 mM Tris pH 8.0, 50 mM NaCl
[10] = 30°C, 20 mM Tris pH 8.0, 50 mM NaCl
[11] = 35°C, 20 mM Tris pH 8.0, 50 mM NaCl
[12] = from dependence of enthalpy on temperature
[13] = [NaCl] 0.02 M, similar for each of two sites
[14] = temperature not stated in the sentence (values match 30°C of Table 1)

T2 sequence (P45040 whole entry): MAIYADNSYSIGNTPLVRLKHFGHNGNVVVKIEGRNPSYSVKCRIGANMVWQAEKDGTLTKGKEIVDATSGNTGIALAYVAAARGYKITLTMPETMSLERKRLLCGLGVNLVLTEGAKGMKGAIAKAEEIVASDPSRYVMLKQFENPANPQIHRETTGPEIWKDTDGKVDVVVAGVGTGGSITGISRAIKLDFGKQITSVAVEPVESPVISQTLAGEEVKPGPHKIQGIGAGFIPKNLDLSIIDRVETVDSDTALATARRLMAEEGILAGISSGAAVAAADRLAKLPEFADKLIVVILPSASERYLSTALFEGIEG
T1 sequence (P0A1E3 whole entry): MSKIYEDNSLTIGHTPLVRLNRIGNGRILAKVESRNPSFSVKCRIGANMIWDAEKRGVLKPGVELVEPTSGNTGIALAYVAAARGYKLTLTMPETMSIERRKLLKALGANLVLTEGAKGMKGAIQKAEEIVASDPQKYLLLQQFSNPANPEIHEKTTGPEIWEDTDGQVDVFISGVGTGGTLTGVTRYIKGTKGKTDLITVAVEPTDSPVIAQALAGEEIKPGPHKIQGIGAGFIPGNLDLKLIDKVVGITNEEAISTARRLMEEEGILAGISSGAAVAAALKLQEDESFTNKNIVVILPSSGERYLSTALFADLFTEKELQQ

N[C@@H](CS)C(=O)O [Cysteine, L-cysteine]
TdS [1, 5]: 1.65 kcal/mol | ΔH [1, 5]: -0.645 ± 0.024 kcal/mol | ΔG [1, 6]: -2.29 ± 0.096 kcal/mol | TdS [1, 7]: 1.63 kcal/mol | ΔG [1, 7]: -2.29 ± 0.072 kcal/mol | ΔH [1, 7]: -0.669 ± 0.024 kcal/mol | TΔS ([1]; 20°C): 3.4 kJ/M | ΔH ([1]; 20°C): -6.4 ± 0.1 kJ/M | TdS [1, 8]: 0.813 kcal/mol | ΔG [1, 8]: -2.34 ± 0.024 kcal/mol | ΔH [1, 8]: -1.53 ± 0.024 kcal/mol | TdS [1, 9]: 1.12 kcal/mol | ΔG [1, 9]: -2.53 ± 0.024 kcal/mol | ΔH [1, 9]: -1.41 ± 0.024 kcal/mol | TdS [1, 10]: 1.39 kcal/mol | ΔG [1, 10]: -2.44 ± 0.048 kcal/mol | ΔH [1, 10]: -1.05 ± 0.048 kcal/mol | TdS [1, 11]: 1.34 kcal/mol | ΔG [1, 11]: -2.63 ± 0.048 kcal/mol | ΔH [1, 11]: -1.29 ± 0.072 kcal/mol | net heat capacity change ΔCp [1, 12]: -130 JK^-1M^-1 | TdS ([2]; 10°C): 0.884 kcal/mol | ΔG ([2]; 10°C): -1.98 ± 0.096 kcal/mol | ΔH ([2]; 10°C): -1.1 ± 0.024 kcal/mol | TdS ([2]; 15°C): 0.98 kcal/mol | ΔG ([2]; 15°C): -2.08 ± 0.048 kcal/mol | ΔH ([2]; 15°C): -1.1 ± 0.048 kcal/mol | TdS ([2]; 20°C): 1.22 kcal/mol | ΔG ([2]; 20°C): -2.27 ± 0.12 kcal/mol | ΔH ([2]; 20°C): -1.05 ± 0.048 kcal/mol | TdS ([2]; 25°C): 0.98 kcal/mol | ΔG ([2]; 25°C): -2.27 ± 0.12 kcal/mol | ΔH ([2]; 25°C): -1.29 ± 0.072 kcal/mol | TdS ([2]; 30°C): 1.55 kcal/mol | ΔG ([2]; 30°C): -2.63 ± 0.072 kcal/mol | ΔH ([2]; 30°C): -1.08 ± 0.096 kcal/mol | heat capacity change ΔCp [2, 12]: -12 JK^-1M^-1 | dlogK/dlog [NaCl] ([3]; [NaCl] 0.02-0.5 M): ~ -0.21 ± 0.1 | N (number of binding sites) ([3]; [NaCl] 0.02 M): 2 | Qmax (maximum fluorescence quenching at saturation) ([3]; [NaCl] 0.02 M): 3.8 | ΔG ([3]; [NaCl] 0.02 M): -3.59 ± 0.024 kcal/mol | Kobs [3, 13]: 6.0 ± 0.1 × 10^2 M^-1 | Kobs ([3]; [NaCl] 0.02 M, similar for each of two sites, listed as cysteine): 600 M⁻¹ | Kobs ([3]; [NaCl] 0.05 M): 5.6 ± 0.1 × 10^2 M^-1 | N (number of binding sites) ([3]; [NaCl] 0.05 M): 2 | Qmax ([3]; [NaCl] 0.05 M): 4.6 | ΔG ([3]; [NaCl] 0.05 M): -3.56 ± 0.024 kcal/mol | Kobs ([3]; [NaCl] 0.1 M): 4.5 ± 0.1 × 10^2 M^-1 | N (number of binding sites) ([3]; [NaCl] 0.1 M): 2 | Qmax ([3]; [NaCl] 0.1 M): 4.6 | ΔG ([3]; [NaCl] 0.1 M): -3.42 ± 0.024 kcal/mol | Kobs ([3]; [NaCl] 0.2 M): 3.7 ± 0.1 × 10^2 M^-1 | N (number of binding sites) ([3]; [NaCl] 0.2 M): 2 | Qmax ([3]; [NaCl] 0.2 M): 4.5 | ΔG ([3]; [NaCl] 0.2 M): -3.32 ± 0.024 kcal/mol | Kobs ([3]; [NaCl] 0.5 M): 2.6 ± 0.1 × 10^2 M^-1 | N (number of binding sites) ([3]; [NaCl] 0.5 M): 2 | Qmax ([3]; [NaCl] 0.5 M): 4.7 | ΔG ([3]; [NaCl] 0.5 M): -3.11 ± 0.024 kcal/mol | Kd [3]: ~1700 µM | Kobs ([4]; [NaCl] 0.02 M): 6.6 ± 0.1 × 10^2 M^-1 | N (number of binding sites) ([4]; [NaCl] 0.02 M): 2 | Qmax ([4]; [NaCl] 0.02 M): 3.9 | ΔG ([4]; [NaCl] 0.02 M): -3.63 ± 0.024 kcal/mol | Kobs ([4]; [NaCl] 0.05 M): 5.6 ± 0.1 × 10^2 M^-1 | N (number of binding sites) ([4]; [NaCl] 0.05 M): 2 | Qmax ([4]; [NaCl] 0.05 M): 5.7 | Kobs ([4]; [NaCl] 0.1 M): 4.5 ± 0.1 × 10^1 M^-1 | N (number of binding sites) ([4]; [NaCl] 0.1 M): 2 | Qmax ([4]; [NaCl] 0.1 M): 5.8 | ΔG ([4]; [NaCl] 0.1 M): -2.15 ± 0.024 kcal/mol | Kobs ([4]; [NaCl] 0.2 M): 3.1 ± 0.1 × 10^1 M^-1 | N (number of binding sites) ([4]; [NaCl] 0.2 M): 2 | Qmax ([4]; [NaCl] 0.2 M): 5.8 | ΔG ([4]; [NaCl] 0.2 M): -1.91 ± 0.024 kcal/mol | Kobs ([4]; [NaCl] 0.5 M): 3.2 ± 0.1 × 10^1 M^-1 | N (number of binding sites) ([4]; [NaCl] 0.5 M): 2 | Qmax ([4]; [NaCl] 0.5 M): 3.1 | ΔG ([4]; [NaCl] 0.5 M): -1.91 ± 0.024 kcal/mol

CSCC[C@H](N)C(=O)O [Methionine, L-methionine]
ΔH ([1]; 25 mM HEPES, pH 8.0, 50 mM NaCl, 25°C): -0.4 ± 0.1 kJ/M | TdS [1, 5]: 1.74 kcal/mol | ΔH [1, 5]: -0.311 ± 0.024 kcal/mol | ΔG [1, 6]: -2.06 ± 0.19 kcal/mol | TdS [1, 7]: 1.72 kcal/mol | ΔG [1, 7]: -2.06 ± 0.096 kcal/mol | ΔH [1, 7]: -0.335 ± 0.024 kcal/mol | TΔS ([1]; 20°C): 8.2 kJ/M | ΔH ([1]; 20°C): -1.5 ± 0.1 kJ/M | TdS [1, 8]: 1.96 kcal/mol | ΔG [1, 8]: -2.32 ± 0.12 kcal/mol | ΔH [1, 8]: -0.359 ± 0.024 kcal/mol | TdS [1, 9]: 2.06 kcal/mol | ΔG [1, 9]: -2.27 ± 0.12 kcal/mol | ΔH [1, 9]: -0.22 ± 0.024 kcal/mol | TdS [1, 10]: 2.25 kcal/mol | ΔG [1, 10]: -2.49 ± 0.19 kcal/mol | ΔH [1, 10]: -0.239 ± 0.024 kcal/mol | TdS [1, 11]: 2.41 kcal/mol | ΔG [1, 11]: -2.7 ± 0.311 kcal/mol | ΔH [1, 11]: -0.287 ± 0.024 kcal/mol | net enthalpic contribution to total binding free energy ([1]; temperature not given): ~ 10% | ΔG [1, 14]: -10.4 kJ/M | ΔH [1, 14]: -1.0 ± 0.2 kJ/M | enthalpic contribution to binding free energy [2]: 8% | TdS ([2]; 10°C): 1.7 kcal/mol | ΔG ([2]; 10°C): -1.72 ± 0.22 kcal/mol | ΔH ([2]; 10°C): -0.048 ± 0.024 kcal/mol | ΔG ([2]; 15°C): -1.72 ± 0.22 kcal/mol | ΔH ([2]; 15°C): -0.048 ± 0.024 kcal/mol | TdS ([2]; 20°C): 1.91 kcal/mol | ΔG ([2]; 20°C): -1.96 ± 0.239 kcal/mol | ΔH ([2]; 20°C): -0.048 ± 0.024 kcal/mol | TdS ([2]; 25°C): 1.65 kcal/mol | ΔG ([2]; 25°C): -1.82 ± 0.263 kcal/mol | ΔH ([2]; 25°C): -0.19 ± 0.024 kcal/mol | TdS ([2]; 30°C): 1.84 kcal/mol | ΔG ([2]; 30°C): -2.01 ± 0.239 kcal/mol | ΔH ([2]; 30°C): -0.17 ± 0.024 kcal/mol | N (number of binding sites) ([3]; [NaCl] 0.02 M): 2 | Qmax (maximum fluorescence quenching at saturation) ([3]; [NaCl] 0.02 M): 3.8 | ΔG ([3]; [NaCl] 0.02 M): -3.18 ± 0.024 kcal/mol | Kobs [3, 13]: 2.9 ± 0.1 × 10^2 M^-1 | Kobs ([3]; [NaCl] 0.02 M, similar for each of two sites, listed as methionine): 290 M⁻¹ | Kobs ([3]; [NaCl] 0.1 M): 6.5 ± 0.1 × 10^1 M^-1 | N (number of binding sites) ([3]; [NaCl] 0.1 M): 2 | Qmax ([3]; [NaCl] 0.1 M): 1.0 | ΔG ([3]; [NaCl] 0.1 M): -2.39 ± 0.024 kcal/mol | Kobs ([3]; [NaCl] 0.2 M): 5.5 ± 0.1 × 10^1 M^-1 | N (number of binding sites) ([3]; [NaCl] 0.2 M): 2 | Qmax ([3]; [NaCl] 0.2 M): 1.4 | ΔG ([3]; [NaCl] 0.2 M): -2.25 ± 0.024 kcal/mol | Kobs ([3]; [NaCl] 0.5 M): 3.5 ± 0.1 × 10^1 M^-1 | N (number of binding sites) ([3]; [NaCl] 0.5 M): 2 | Qmax ([3]; [NaCl] 0.5 M): 0.5 | ΔG ([3]; [NaCl] 0.5 M): -2.08 ± 0.024 kcal/mol | Kd [3]: ~3400 µM | Kobs ([4]; [NaCl] 0.02 M): 1.5 ± 0.1 × 10^2 M^-1 | Qmax ([4]; [NaCl] 0.02 M): 3.0 | ΔG ([4]; [NaCl] 0.02 M): -2.82 ± 0.048 kcal/mol | Kobs ([4]; [NaCl] 0.1 M): 5.8 ± 0.1 × 10^1 M^-1 | N (number of binding sites) ([4]; [NaCl] 0.1 M): 2 | Qmax ([4]; [NaCl] 0.1 M): 0.5 | ΔG ([4]; [NaCl] 0.1 M): -2.27 ± 0.12 kcal/mol | Kobs ([4]; [NaCl] 0.2 M): 3.4 ± 0.1 × 10^1 M^-1 | N (number of binding sites) ([4]; [NaCl] 0.2 M): 2 | Qmax ([4]; [NaCl] 0.2 M): 0.2 | ΔG ([4]; [NaCl] 0.2 M): -1.94 ± 0.12 kcal/mol | Kobs ([4]; [NaCl] 0.5 M): 2.3 ± 0.1 × 10^1 M^-1 | N (number of binding sites) ([4]; [NaCl] 0.5 M): 2 | Qmax ([4]; [NaCl] 0.5 M): 0.2 | ΔG ([4]; [NaCl] 0.5 M): -1.74 ± 0.14 kcal/mol
